According to publication PMC8730602 (2022):

Assays:
[1] = system: thiolated cortisol aptamer (DNA, aptamer) CGACCGGTCTGGGGACCCTGTCTGGGTGTGTGGGTAGTAGGTCG; experiment: aptamer field-effect transistor; settings: artificial sweat (Table S5), immobilised aptamer; for binding: negligible response at physiological concentrations versus 10 nM cortisol
[2] = system: cortisol aptamer, fluorescein at 5' end (DNA, aptamer) CTCTCGGGACGACCGGTCTGGGGACCCTGTCTGGGTGTGTGGGTAGTAGGTCGTCCC; experiment: competitive structure-switching fluorescence (FAM/dabcyl); settings: 154 mM NaCl, 1.058 mM KH2PO4, 2 mM MgCl2; PBS pH 7.3-7.5; dabcyl quencher strand GGTCGTCCCGAGAG displaced, aptamer:quencher 1:5
[3] = system: thiolated serotonin aptamer (DNA, aptamer) CGACTGGTAGGCAGATAGGGGAAGCTGATTCGATGCGTGGGTCG; experiment: aptamer field-effect transistor; settings: artificial sweat (Table S5); immobilised aptamer; response over 10 fM to 100 µM

CC(=O)[C@H]1CC[C@H]2[C@@H]3CCC4=CC(=O)CC[C@]4(C)[C@H]3CC[C@]12C
binding [1]: no

C[C@]12CCC(=O)C=C1CC[C@@H]1[C@@H]2[C@@H](O)C[C@@]2(C)[C@H]1CC[C@]2(O)C(=O)CO
Kd ([1]; on-FET, gate-voltage sweep, apparent): ~ 30 pM | Kd [2]: 500 nM

C[C@]12CC[C@H]3[C@@H](CCC4=CC(=O)CC[C@@]43C)[C@@H]1CC[C@@H]2O
binding [1]: no

NCCc1c[nH]c2ccc(O)cc12
binding [1]: no | binding [3]: yes
